“And” between values parts separate entries of the source, which are not always exact repeats. Equal values may be shown once.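 Five compound concentrations were applied to cells in 96-well plates for 48 hours; endpoints were derived by simple linear interpolation of the resulting dose-response curve. The concentration for 50% growth inhibition is given as GI50. TGI: concentration producing complete growth inhibition.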 Where a SMILES comes first, the peptide text is derived from it.
Tests used:
Assay in all cases: growth of human tumour cells (NCI), 48 h
A498 renal = test system: A498 renal
DU-145 prostate = test system: DU-145 prostate
HCT-116 colon = test system: HCT-116 colon
HOP-62 NSCLC = test system: HOP-62 NSCLC
M14 melanoma = test system: M14 melanoma
MDA-MB-231 breast = test system: MDA-MB-231 breast
MDA-N = test system: MDA-N
NCI-H460 lung = test system: NCI-H460 lung
OVCAR-8 ovarian = test system: OVCAR-8 ovarian
RXF 393 renal = test system: RXF 393 renal
SF-268 CNS = test system: SF-268 CNS
SK-MEL-28 melanoma = test system: SK-MEL-28 melanoma
SW-620 colon = test system: SW-620 colon

SMILES	TGI (A498 renal)	TGI (DU-145 prostate)	TGI (HCT-116 colon)	TGI (HOP-62 NSCLC)	TGI (M14 melanoma)	TGI (MDA-MB-231 breast)	TGI (MDA-N)	TGI (NCI-H460 lung)	TGI (OVCAR-8 ovarian)	TGI (RXF 393 renal)	TGI (SF-268 CNS)	TGI (SK-MEL-28 melanoma)	TGI (SW-620 colon) [µM]	GI50 (DU-145 prostate) [µM]	GI50 (M14 melanoma) [µM]	GI50 (MDA-MB-231 breast) [µM]
C[N+]12CCCCC1C(CN1C(=O)c3ccccc3C1=O)CCC2 (configuration not stated)	> 100 µM	> 100 µM	> 100 µM	> 100 µM	> 100 µM	> 100 µM	> 100 µM	> 100 µM	> 100 µM	> 100 µM	> 100 µM	> 100 µM	> 100	–	–	–
CC(=O)NC(CO)C(=O)NC(Cc1ccc(O)cc1)C(=O)NCC(N)=O (stereo not drawn) (Ac-Ser-Tyr-Gly-NH2; configuration not given here)	> 100 µM	> 100 µM	> 100 µM	> 100 µM	> 100 µM	> 100 µM	> 100 µM	> 100 µM	> 100 µM	> 100 µM	> 100 µM	> 100 µM	> 100	–	–	–
COc1cccc(C(=O)N[C@@H]2[C@H](O)[C@@H](CO)O[C@H]2n2cnc3c(N)ncnc32)c1	> 100 µM	> 100 µM	> 100 µM	> 100 µM	> 100 µM	> 100 µM	> 100 µM	> 100 µM	> 100 µM	> 100 µM	> 100 µM	> 100 µM	> 100	–	–	–
COC(=O)C1=NN2c3ccccc3CN([C@@H](C)c3ccccc3)C(=O)[C@H]2[C@@H]1C	> 100 µM	> 100 µM	> 100 µM	> 100 µM	> 100 µM	> 100 µM	> 100 µM	> 100 µM	> 100 µM	> 100 µM	> 100 µM	> 100 µM	> 100	–	–	–
N#CCN(Cc1ccccc1)[C@@H]1CCC[C@]1(O)C#Cc1ccc2c(c1)OCO2	35.1 µM	> 100 µM	–	30.8 µM	32 µM	36.1 µM	34.2 µM	36.1 µM	32.2 µM	30.3 µM	41.1 µM	33.3 µM	58.6	–	–	–
C=C(CC)C[C@@H]1C[C@]2(C(=O)OC)c3[nH]c4ccccc4c3CCN2C1=O	41.1 µM	> 100 µM	29.6 µM	34 µM	36.5 µM	54.7 µM	35.5 µM	53.6 µM	> 100 µM	27.7 µM	51.9 µM	39.9 µM	35.9	–	–	–
C=CC[C@H]1[C@H](O[Si](C)(C)C(C)(C)C)C=CC(=O)[C@@H]1CC(=O)OCC	26.6 µM	32.8 µM	23.5 µM	34.5 µM	25.3 µM	27.6 µM	29.1 µM	27.6 µM	31.6 µM	25.7 µM	28.9 µM	34.6 µM	33	–	–	–
CN1CCCC(C(=O)OCC(=O)C2(O)CCC3C4CCC5=CC(=O)CCC5(C)C4C(O)CC32C)C1 (configuration not stated)	31.6 µM	45.1 µM	23.5 µM	31 µM	59.3 µM	19.2 µM	26.8 µM	28.5 µM	35.3 µM	23.1 µM	46.4 µM	35.4 µM	> 79.2	–	–	–
CC(C)(CN)SCc1ccccc1	> 100 µM	> 100 µM	> 100 µM	> 100 µM	> 100 µM	> 100 µM	> 100 µM	> 100 µM	> 100 µM	> 100 µM	> 100 µM	> 100 µM	> 100	–	–	–
CC(C)OP(=O)(OC(C)C)C(Nc1cccc(C(F)(F)F)c1)c1ccccc1 (configuration not stated)	> 100 µM	> 100 µM	> 100 µM	> 100 µM	> 100 µM	> 100 µM	> 100 µM	> 100 µM	> 100 µM	> 100 µM	> 100 µM	> 100 µM	–	–	–	–
CC/C=C/C(/C=C/C[C@]1(CC)C[C@H](CC)[C@H](CC(=O)O)OO1)CC (some centres not stated)	28.9 µM	4.36 µM	6.81 µM	3.5 µM	26.5 µM	14.3 µM	3.71 µM	4.25 µM	13.1 µM	6.3 µM	9.57 µM	7.41 µM	5.1	–	–	–
CCSC12CC3c4cccc5c4C(CN5C(=O)c4ccccc4)CC3(O1)N(C)C2=O (configuration not stated)	> 100 µM	> 100 µM	> 100 µM	–	> 100 µM	> 100 µM	81.6 µM	> 100 µM	> 100 µM	> 100 µM	> 100 µM	> 100 µM	> 100	–	–	–
CNc1ncnc2c1cnn2Cc1cn(CCCCO)nn1	> 100 µM	> 100 µM	> 100 µM	> 100 µM	> 100 µM	> 100 µM	> 100 µM	> 100 µM	> 100 µM	> 100 µM	> 100 µM	> 100 µM	> 100	–	–	–
O=C1C(NS(=O)(=O)c2ccccc2)=C(N(Cc2ccccc2)Cc2ccccc2)C(=O)c2ccccc21	–	> 100 µM	> 100 µM	> 100 µM	> 100 µM	> 100 µM	> 100 µM	> 100 µM	> 100 µM	67.8 µM	> 100 µM	> 100 µM	> 100	–	–	–
C(=N/NC1=NCCN1)/c1c2ccccc2c(/C=N\NC2=NCCN2)c2ccccc12	0.273 µM and 1.8 µM and 2.3 µM	0.623 µM and 3.43 µM	0.468 µM and 1.18 µM and 1.21 µM	0.611 µM and 1.75 µM and 0.597 µM	0.568 µM and 0.697 µM	1.66 µM and 12.5 µM	0.69 µM and 1.18 µM	0.335 µM and 0.33 µM and 0.159 µM	1.32 µM and 2.98 µM and 3.42 µM	0.829 µM and 2.08 µM and 0.596 µM	0.558 µM and 0.722 µM and 0.747 µM	1.01 µM and 1.08 µM and 0.685 µM	–	0.0878	0.25	0.459
CC1=C(C(=O)NC(C)(C)C)CC(C(=O)NC(C)(C)C)C(C)N1 (configuration not stated)	> 100 µM	> 100 µM	> 100 µM	> 100 µM	> 100 µM	> 100 µM	> 100 µM	> 100 µM	> 100 µM	> 100 µM	> 100 µM	–	> 100	–	–	–
COC(=O)[C@@H]1[C@H](O)CC[C@H]2[C@@]1(C)CC[C@@H](C)[C@]2(COC(C)=O)CC(=O)c1ccoc1	> 50 µM	> 50 µM	> 50 µM	–	> 50 µM	> 50 µM	> 50 µM	> 50 µM	> 50 µM	> 50 µM	> 50 µM	> 50 µM	> 50	–	–	–

From PubChem BioAssay (NCI)
